Results from patent US20230416205A1, “COMPOUNDS, COMPOSITIONS, AND METHODS” (Denali Therapeutics Inc, priority 2020, published 2023).
Like-named read-outs stand apart in the source and are kept apart here.

Test system: NLRP3
Test: IL-1β secretion assay in PMA-differentiated, LPS/nigericin-stimulated THP-1 cells (384-well, ELISA read-out)
Assay type: cell-based, human
Method in brief: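 THP-1 cells differentiated with PMA (5 ng/mL, 40 h), primed in serum-free medium with 25 ng/mL LPS for 2 h, treated with compounds 1 h (0.5% DMSO), then stimulated with nigericin for 2 h at 37 °C. Supernatant IL-1β measured by ELISA; responses normalized to LPS+5 μM nigericin and LPS-only controls.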

[1] = Homo sapiens, THP-1, IL-1β secretion, PMA-differentiated THP-1 cells, LPS then nigericin stimulation, ELISA read at 450 nm, read-out: Activity
[2] = Homo sapiens, THP-1, Table 4, IL-1β secretion, LPS/nigericin-stimulated THP-1 cells, read-out: IC50
[3] = Table 4, IL-1β secretion, LPS/nigericin-stimulated THP-1 cells, read-out: IC50

Compound	IC50 [1] [µM]	IC50 [2] [µM]	IC50 [3] [µM]
O=C(CN1CC2(CC2)c2cc(Br)ccc2C1=O)Nc1nc2ccc(Cl)cn2n1 [Example 264, 2-(6-bromo-1-oxospiro[3H-isoquinoline-4,1′-cyclopropane]-2-yl)-N-(6-chloro-[1,2,4]triazolo[1,5-a]pyridin-2-yl)acetamide]	< 10	0.312	–
O=C(CN1CC2(CC2)c2cc(Br)ccc2C1=O)NC1CC2(CC2)C1 [Example 23, 2-(6-bromo-1-oxo-spiro[3H-isoquinoline-4,1′-cyclopropane]-2-yl)-N-spiro[2.3]hexan-5-yl-acetamide]	< 10	1.88	–
O=C(CN1CC2(CC2)c2cc(Br)ccc2C1=O)Nc1ncc(N2CCCC2)cn1 [Example 364, 2-(6-bromo-1-oxospiro[3H-isoquinoline-4,1′-cyclopropane]-2-yl)-N-(5-pyrrolidin-1-ylpyrimidin-2-yl)acetamide]	–	2.56	–
O=C(CN1CC2(CC2)c2cc(Br)ccc2C1=O)Nc1ncc(C2CCCO2)cn1 (centres unmarked) [Example 359, 2-(6-bromo-1-oxospiro[3H-isoquinoline-4,1′-cyclopropane]-2-yl)-N-[5-(oxolan-2-yl)pyrimidin-2-yl]acetamide]	–	0.603	–
O=C(CN1CC2(CC2)c2cc([C@@]3(F)C[C@H]3C(F)(F)F)ccc2C1=O)Nc1ncc(F)cn1 [Example 404, N-(5-fluoropyrimidin-2-yl)-2-[6-[(1r,2r)-1-fluoro-2-(trifluoromethyl)cyclopropyl]-1-oxospiro[3H-isoquinoline-4,1′-cyclopropane]-2-yl]acetamide]	–	3.89	–
COc1ccc2c(c1)C1(CC1)CN(CC(=O)Nc1ncccn1)C2=O [Example 91, 2-(6-methoxy-1-oxospiro[3H-isoquinoline-4,1′-cyclopropane]-2-yl)-N-pyrimidin-2-ylacetamide]	< 10	3.21	–
Cc1nc(NC(=O)CN2CC3(CC3)c3cc(Br)ccc3C2=O)ncc1F [Example 184, 2-(6-bromo-1-oxospiro[3H-isoquinoline-4,1′-cyclopropane]-2-yl)-N-(5-fluoro-4-methylpyrimidin-2-yl)acetamide]	< 10	0.651	–
COC1(C)CC(NC(=O)CN2CC3(CC3)c3cc(Br)ccc3C2=O)C1 (stereo not drawn) [Example 340, 2-(6-bromo-1-oxospiro[3H-isoquinoline-4,1′-cyclopropane]-2-yl)-N-(3-trans-methoxy-3-methylcyclobutyl)acetamide]	–	–	7.87
CC1(C)COC(NC(=O)CN2CC3(CC3)c3cc(Br)ccc3C2=O)=N1 [Example 405, 2-(6-bromo-1-oxospiro[3H-isoquinoline-4,1′-cyclopropane]-2-yl)-N-(4,4-dimethyl-5H-1,3-oxazol-2-yl)acetamide]	–	18	–
CC1(C)CN(CC(=O)N[C@@H]2CCCN(C3CCC3)C2)C(=O)c2ccc(Br)cc21 [Example 26, (R)-2-(6-bromo-4,4-dimethyl-1-oxo-3,4-dihydroisoquinolin-2(1H)-yl)-N-(1-cyclobutylpiperidin-3-yl)acetamide]	< 10	0.445	–
O=C(CN1CC2(CC2)c2cc(Br)ccc2C1=O)NC1(c2ccccc2)CC1 [Example 161, 2-(6-bromo-1-oxospiro[3H-isoquinoline-4,1′-cyclopropane]-2-yl)-N-(1-phenylcyclopropyl)acetamide]	< 10	6.12	–
O=C(CN1CC2(CC2(F)F)c2c(ccc(Br)c2F)C1=O)Nc1ncc(Cl)cn1 (single isomer, unassigned) [Example 318, 2-[6-bromo-1′,1′,5-trifluoro-1-oxospiro[3H-isoquinoline-4,2′-cyclopropane]-2-yl]-N-(5-chloropyrimidin-2-yl)acetamide]	–	–	0.008
O=C(CN1CC2(CC2)c2cc(Br)c(F)cc2C1=O)Nc1ncc(F)cn1 [Example 99, 2-(6-bromo-7-fluoro-1-oxospiro[3H-isoquinoline-4,1′-cyclopropane]-2-yl)-N-(5-fluoropyrimidin-2-yl)acetamide]	< 10	0.598	–
O=C(CN1CC2(CC2)c2cc(Br)ccc2C1=O)Nc1ccc2cn[nH]c2c1 [Example 43, 2-(6-bromo-1-oxo-spiro[3H-isoquinoline-4,1′-cyclopropane]-2-yl)-N-(1H-indazol-6-yl)acetamide]	< 10	0.368	–
O=C(CN1CC2(CC2)c2cc(Br)ccc2C1=O)Nc1ncc(Cl)cc1F [Example 8]	< 10	0.216	–
O=C(CN1CC2(CC2)c2cc(Br)ccc2C1=O)Nc1ccc2cncn2c1 [Example 201, 2-(6-bromo-1-oxospiro[3H-isoquinoline-4,1′-cyclopropane]-2-yl)-N-imidazo[1,5-a]pyridin-6-ylacetamide]	< 10	1.32	–
O=C1c2ccc(Br)cc2C2(CC2)CN1CC(=O)N1CCc2cccnc21 [Example 158, 6-bromo-2-[2-(2,3-dihydropyrrolo[2,3-b]pyridin-1-yl)-2-oxoethyl]spiro[3H-isoquinoline-4,1′-cyclopropane]-1-one]	< 10	5.9	–
O=C(CN1CC2(CC2)c2cc(Br)ccc2C1=O)NC1CC(OCc2ccccc2)C1 (stereo not drawn) [Example 357, 2-(6-bromo-1-oxospiro[3H-isoquinoline-4,1′-cyclopropane]-2-yl)-N-(3-trans-phenylmethoxycyclobutyl)acetamide]	–	5.21	–
CN(Cc1cnn(C)c1)C(=O)CN1CC2(CC2)c2cc(Br)ccc2C1=O [Example 123, 2-(6-bromo-1-oxospiro[3H-isoquinoline-4,1′-cyclopropane]-2-yl)-N-methyl-N-[(1-methylpyrazol-4-yl)methyl]acetamide]	> 15	34.9	–
O=C(CN1CC2(CC2)c2cc(Br)ccc2C1=O)Nc1ccc(=O)[nH]n1 [Example 430, 2-(6-bromo-1-oxospiro[3H-isoquinoline-4,1′-cyclopropane]-2-yl)-N-(6-oxo-1H-pyridazin-3-yl)acetamide]	–	0.634	–
O=C(CN1CC2(CC2)c2cc(Br)ccc2C1=O)NC1CCNC1=O (centres unmarked) [Example 406, 2-(6-bromo-1-oxospiro[3H-isoquinoline-4,1′-cyclopropane]-2-yl)-N-(2-oxopyrrolidin-3-yl)acetamide]	–	16.1	–
O=C(CN1CC2(CC2(F)F)c2c(ccc(Br)c2F)C1=O)Nc1ncc(Cl)cn1 (single isomer, unassigned) [Example 317, 2-[6-bromo-1′,1′,5-trifluoro-1-oxospiro[3H-isoquinoline-4,2′-cyclopropane]-2-yl]-N-(5-chloropyrimidin-2-yl)acetamide]	–	–	8.51
O=C(CN1CC2(CC2)c2cc(Br)ccc2C1=O)Nc1ncc(C2CCC2)cn1 [Example 256, 2-(6-bromo-1-oxospiro[3H-isoquinoline-4,1′-cyclopropane]-2-yl)-N-(5-cyclobutylpyrimidin-2-yl)acetamide]	< 10	0.395	–
C[C@@H]1[C@H](F)[C@]12CN(CC(=O)Nc1ncc(F)cn1)C(=O)c1ccc(Br)cc12 (single isomer, unassigned) [Example 277, 2-[(2′s,3′s,4r)-6-bromo-2′-fluoro-3′-methyl-1-oxospiro[3H-isoquinoline-4,1′-cyclopropane]-2-yl]-N-(5-fluoropyrimidin-2-yl)acetamide]	< 10	–	0.021
